#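 48-hour exposure; five concentrations; linearly interpolated endpoints. Definition used: TGI = concentration required for complete inhibition of growth.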
# Assays:
# Assay in all cases: DTP human tumour cell line panel, 48 h
# HOP-92 NSCLC = test system: HOP-92 NSCLC
# MDA-MB-435 = test system: MDA-MB-435
# PC-3 prostate = test system: PC-3 prostate
# SF-268 CNS = test system: SF-268 CNS
# SNB-19 CNS = test system: SNB-19 CNS
# M14 melanoma = test system: M14 melanoma
# KM12 colon = test system: KM12 colon
# A549 NSCLC = test system: A549 NSCLC
# MOLT-4 leukemia = test system: MOLT-4 leukemia
# OVCAR-4 ovarian = test system: OVCAR-4 ovarian
# NCI-H522 lung = test system: NCI-H522 lung
# A498 renal = test system: A498 renal
# SW-620 colon = test system: SW-620 colon
# DU-145 prostate = test system: DU-145 prostate
# SK-MEL-2 melanoma = test system: SK-MEL-2 melanoma
# SK-OV-3 ovarian = test system: SK-OV-3 ovarian
# IGROV1 ovarian = test system: IGROV1 ovarian
# T-47D breast = test system: T-47D breast
# OVCAR-3 ovarian = test system: OVCAR-3 ovarian
# MALME-3M melanoma = test system: MALME-3M melanoma
# MDA-N = test system: MDA-N
# EKVX NSCLC = test system: EKVX NSCLC
# NCI/ADR-RES ovarian = test system: NCI/ADR-RES ovarian
# HCT-15 colon = test system: HCT-15 colon
# SF-295 CNS = test system: SF-295 CNS
# SF-539 CNS = test system: SF-539 CNS
# SR leukemia = test system: SR leukemia
# MDA-MB-231 breast = test system: MDA-MB-231 breast
# SK-MEL-5 melanoma = test system: SK-MEL-5 melanoma
# 786-0 renal = test system: 786-0 renal
# UACC-257 melanoma = test system: UACC-257 melanoma
# NCI-H226 lung = test system: NCI-H226 lung
# SNB-75 CNS = test system: SNB-75 CNS
# NCI-H23 lung = test system: NCI-H23 lung
# HOP-62 NSCLC = test system: HOP-62 NSCLC
# BT-549 breast = test system: BT-549 breast
# U251 CNS = test system: U251 CNS
# HCT-116 colon = test system: HCT-116 colon
# COLO 205 colon = test system: COLO 205 colon
# UO-31 renal = test system: UO-31 renal
# OVCAR-8 ovarian = test system: OVCAR-8 ovarian
# MCF7 breast = test system: MCF7 breast
# RPMI-8226 leukemia = test system: RPMI-8226 leukemia
# CAKI-1 renal = test system: CAKI-1 renal
# OVCAR-5 ovarian = test system: OVCAR-5 ovarian
# NCI-H460 lung = test system: NCI-H460 lung
# UACC-62 melanoma = test system: UACC-62 melanoma
# LOX IMVI melanoma = test system: LOX IMVI melanoma
# RXF 393 renal = test system: RXF 393 renal
# ACHN renal = test system: ACHN renal
# TK-10 renal = test system: TK-10 renal
# HCC-2998 colon = test system: HCC-2998 colon
# SN12C renal = test system: SN12C renal
# HT29 colon = test system: HT29 colon
# SK-MEL-28 melanoma = test system: SK-MEL-28 melanoma
# CCRF-CEM leukemia = test system: CCRF-CEM leukemia
# K-562 leukemia = test system: K-562 leukemia
smiles,measurement,setting,value
C=C(C)C(=O)OC1CC2(C)OC(=CC2=O)C(C)CC2OC(=O)C(=C)C12 (stereo not given),TGI,HOP-92 NSCLC,28.7 µM
same,TGI,MDA-MB-435,25.8 µM
same,TGI,PC-3 prostate,31.8 µM
same,TGI,SF-268 CNS,> 100 µM
same,TGI,SNB-19 CNS,39.2 µM
same,TGI,M14 melanoma,24.2 µM
same,TGI,KM12 colon,55.3 µM
same,TGI,A549 NSCLC,47.7 µM
same,TGI,MOLT-4 leukemia,> 35.1 µM
same,TGI,OVCAR-4 ovarian,20.1 µM
same,TGI,NCI-H522 lung,4.2 µM
same,TGI,A498 renal,37.6 µM
same,TGI,SW-620 colon,18.3 µM
same,TGI,DU-145 prostate,18.7 µM
same,TGI,SK-MEL-2 melanoma,34.3 µM
same,TGI,SK-OV-3 ovarian,> 100 µM
same,TGI,IGROV1 ovarian,25.4 µM
same,TGI,T-47D breast,27.8 µM
same,TGI,OVCAR-3 ovarian,19 µM
same,TGI,MALME-3M melanoma,16.1 µM
same,TGI,MDA-N,7.98 µM
same,TGI,EKVX NSCLC,25.1 µM
same,TGI,NCI/ADR-RES ovarian,69.8 µM
same,TGI,HCT-15 colon,5.19 µM
same,TGI,SF-295 CNS,38.1 µM
same,TGI,SF-539 CNS,14.2 µM
same,TGI,SR leukemia,> 24.7 µM
same,TGI,MDA-MB-231 breast,38.8 µM
same,TGI,SK-MEL-5 melanoma,13.4 µM
same,TGI,786-0 renal,17.6 µM
same,TGI,UACC-257 melanoma,35.2 µM
same,TGI,NCI-H226 lung,> 62.8 µM
same,TGI,SNB-75 CNS,49.2 µM
same,TGI,NCI-H23 lung,24.6 µM
same,TGI,HOP-62 NSCLC,38.1 µM
same,TGI,BT-549 breast,21.4 µM
same,TGI,U251 CNS,74.5 µM
same,TGI,HCT-116 colon,5.15 µM
same,TGI,COLO 205 colon,3.31 µM
same,TGI,UO-31 renal,16.6 µM
same,TGI,OVCAR-8 ovarian,35.6 µM
same,TGI,MCF7 breast,26.6 µM
same,TGI,RPMI-8226 leukemia,> 100 µM
same,TGI,CAKI-1 renal,9.02 µM
same,TGI,OVCAR-5 ovarian,26.9 µM
same,TGI,NCI-H460 lung,29.7 µM
same,TGI,UACC-62 melanoma,27.7 µM
same,TGI,LOX IMVI melanoma,17.8 µM
same,TGI,RXF 393 renal,5.62 µM
same,TGI,ACHN renal,14.4 µM
same,TGI,TK-10 renal,28.3 µM
same,TGI,HCC-2998 colon,24.8 µM
same,TGI,SN12C renal,36.7 µM
same,TGI,HT29 colon,24.2 µM
same,TGI,SK-MEL-28 melanoma,30.2 µM
CNC(=O)C(C)C1C(=O)/C(=C(O)/C=C\C(C)=C\C(C)C2OC3(C)OC(C=CC34CO4)C2C)C(=O)N1C1CCC(O)C(C)O1 (stereo not given),TGI,MDA-MB-435,> 100 µM
same,TGI,PC-3 prostate,> 100 µM
same,TGI,SF-268 CNS,> 100 µM
same,TGI,SNB-19 CNS,> 100 µM
same,TGI,M14 melanoma,> 100 µM
same,TGI,KM12 colon,> 100 µM
same,TGI,A549 NSCLC,> 100 µM
same,TGI,MOLT-4 leukemia,> 100 µM
same,TGI,A498 renal,> 100 µM
same,TGI,SW-620 colon,> 100 µM
same,TGI,DU-145 prostate,> 100 µM
same,TGI,SK-MEL-2 melanoma,> 100 µM
same,TGI,SK-OV-3 ovarian,> 100 µM
same,TGI,IGROV1 ovarian,> 100 µM
same,TGI,T-47D breast,> 100 µM
same,TGI,CCRF-CEM leukemia,> 100 µM
same,TGI,OVCAR-3 ovarian,> 100 µM
same,TGI,MALME-3M melanoma,> 100 µM
same,TGI,MDA-N,> 100 µM
same,TGI,EKVX NSCLC,> 100 µM
same,TGI,NCI/ADR-RES ovarian,> 100 µM
same,TGI,HCT-15 colon,> 100 µM
same,TGI,K-562 leukemia,> 100 µM
same,TGI,SF-539 CNS,> 100 µM
same,TGI,SR leukemia,> 100 µM
same,TGI,MDA-MB-231 breast,> 100 µM
same,TGI,SK-MEL-5 melanoma,> 100 µM
same,TGI,786-0 renal,> 100 µM
same,TGI,UACC-257 melanoma,> 100 µM
same,TGI,SNB-75 CNS,> 100 µM
same,TGI,HOP-62 NSCLC,> 100 µM
same,TGI,BT-549 breast,> 100 µM
same,TGI,U251 CNS,> 100 µM
same,TGI,HCT-116 colon,> 100 µM
same,TGI,COLO 205 colon,> 100 µM
same,TGI,UO-31 renal,> 100 µM
same,TGI,OVCAR-8 ovarian,> 100 µM
same,TGI,MCF7 breast,> 100 µM
same,TGI,RPMI-8226 leukemia,> 100 µM
same,TGI,CAKI-1 renal,> 100 µM
same,TGI,OVCAR-5 ovarian,> 100 µM
same,TGI,NCI-H460 lung,> 100 µM
same,TGI,UACC-62 melanoma,> 100 µM
same,TGI,RXF 393 renal,> 100 µM
same,TGI,ACHN renal,> 100 µM
same,TGI,TK-10 renal,> 100 µM
same,TGI,HCC-2998 colon,> 100 µM
same,TGI,SN12C renal,> 100 µM
same,TGI,HT29 colon,> 100 µM
same,TGI,SK-MEL-28 melanoma,> 100 µM
CCOC(=O)N/N=C(\Cc1ccccc1)OCC,TGI,HOP-92 NSCLC,> 100 µM
same,TGI,MDA-MB-435,> 100 µM
same,TGI,PC-3 prostate,> 100 µM
same,TGI,SF-268 CNS,> 100 µM
same,TGI,SNB-19 CNS,> 100 µM
same,TGI,M14 melanoma,> 100 µM
same,TGI,KM12 colon,> 100 µM
same,TGI,A549 NSCLC,> 100 µM
same,TGI,MOLT-4 leukemia,> 100 µM
same,TGI,OVCAR-4 ovarian,> 100 µM
same,TGI,NCI-H522 lung,> 100 µM
same,TGI,SW-620 colon,> 100 µM
same,TGI,DU-145 prostate,> 100 µM
same,TGI,SK-MEL-2 melanoma,> 100 µM
same,TGI,SK-OV-3 ovarian,> 100 µM
same,TGI,IGROV1 ovarian,> 100 µM
same,TGI,CCRF-CEM leukemia,> 100 µM
same,TGI,OVCAR-3 ovarian,> 100 µM
same,TGI,MDA-N,> 100 µM
same,TGI,EKVX NSCLC,> 100 µM
same,TGI,NCI/ADR-RES ovarian,> 100 µM
same,TGI,HCT-15 colon,> 100 µM
same,TGI,K-562 leukemia,> 100 µM
same,TGI,SF-295 CNS,> 100 µM
same,TGI,SF-539 CNS,> 100 µM
same,TGI,SR leukemia,> 100 µM
same,TGI,MDA-MB-231 breast,> 100 µM
same,TGI,SK-MEL-5 melanoma,> 100 µM
same,TGI,786-0 renal,> 100 µM
same,TGI,UACC-257 melanoma,> 100 µM
same,TGI,SNB-75 CNS,> 100 µM
same,TGI,NCI-H23 lung,> 100 µM
same,TGI,HOP-62 NSCLC,> 100 µM
same,TGI,BT-549 breast,> 100 µM
same,TGI,U251 CNS,> 100 µM
same,TGI,HCT-116 colon,> 100 µM
same,TGI,COLO 205 colon,> 100 µM
same,TGI,UO-31 renal,> 100 µM
same,TGI,OVCAR-8 ovarian,> 100 µM
same,TGI,MCF7 breast,> 100 µM
same,TGI,RPMI-8226 leukemia,> 100 µM
same,TGI,OVCAR-5 ovarian,> 100 µM
same,TGI,UACC-62 melanoma,> 100 µM
same,TGI,LOX IMVI melanoma,> 100 µM
same,TGI,RXF 393 renal,> 100 µM
same,TGI,ACHN renal,> 100 µM
same,TGI,TK-10 renal,> 100 µM
same,TGI,HCC-2998 colon,> 100 µM
same,TGI,SN12C renal,> 100 µM
same,TGI,HT29 colon,> 100 µM
